According to patent publication US20110130427A1, “PESTICIDAL COMPOSITION” (ISHIHARA SANGYO KAISHA, LTD., priority 2008, published 2011):

Tests used:
[1] = test system: serpentine leaf miner (Liriomyza trifolii); assay: Test Example 1: controlling effects against serpentine leaf miner, Example 1 dilution with polyoxyethylene alkyl ether phosphoric acid ester; assay type: in vivo
Description: (§1) The above components are mixed, and the obtained solution is diluted 2,000 times or 4,000 times with water containing a polyoxyethylene alkyl ether phosphoric acid ester, followed by spraying (active ingredient concentration: 25 ppm or 12.5 ppm).
Kidney bean planted in a pot having a diameter of 7 cm was put in a breeding case wherein adults of serpentine leaf miner (Liriomyza trifolii) were released and permitted to lay eggs for 2 days. Thereafter, the test plant was taken out and left for 1 day, and then, a water-diluted liquid containing 100 ppm or 250 ppm of the polyoxyethylene alkyl ether phosphoric acid ester prepared in the above Example 1, was sprayed twice on each of the front and rear sides of the Kidney bean leaf by means of a hand spray. After drying in air, the Kidney bean was left to stand for 5 days in an illuminated constant temperature chamber at 25° C., whereupon the number of pupae on each leaf was counted, and the protective value was calculated by the following formula. The test was repeated twice. As the polyoxyethylene alkyl ether phosphoric acid ester, PHOSPHANOL RD-510Y, PHOSPHANOL RS-610 and PHOSPHANOL RS-710 (manufactured by Toho Chemical Industry Co., Ltd.) and ADEKA COL PS-440E (manufactured by ADEKA) were used.
(§2) For the purpose of comparison, a water-diluted liquid having no polyoxyethylene alkyl ether phosphoric acid ester added, was prepared, and spray treatment was carried out in the same manner.
(§3) Protective value (%)=(1−(the number of pupae at treated section/the number of pupae at untreated section))×100

serpentine leaf miner [2] = assay: Test Example 2: controlling effects against serpentine leaf miner, Example 1 dilution with polyoxyethylene arylether phosphoric acid ester; assay type: in vivo, Liriomyza trifolii
Description: as §1, §3
Kidney bean planted in a pot having a diameter of 7 cm was put in a breeding case wherein adults of serpentine leaf miner were released and permitted to lay eggs for 2 days. Thereafter, the test plant was taken out and left for 1 day, and then, a water-diluted liquid containing 50 ppm of a polyoxyethylene arylether phosphoric acid ester, prepared by replacing the polyoxyethylene alkyl ether phosphoric acid ester in the above Example 1 by a polyoxyethylene arylether phosphoric acid ester, was sprayed twice on each of the front and rear sides of the Kidney bean leaf by means of a hand spray. After drying in air, the Kidney bean was left to stand for 5 days in an illuminated constant temperature chamber at 25° C., whereupon the number of pupae on each leaf was counted, and the protective value was calculated in the same manner as in Test Example 1. The test was repeated twice. As the polyoxyethylene arylether phosphoric acid ester, and ADEKA COL CS-1361E (manufactured by ADEKA) was used.
For the purpose of comparison, a water-diluted liquid n having no polyoxyethylene arylether phosphoric acid ester added, was prepared, and spray treatment was carried out in the same manner.

serpentine leaf miner [3] = assay: Test Example 3: controlling effects against serpentine leaf miner, liquid composition of Example 4 diluted with water; assay type: in vivo, Liriomyza trifolii
Description: […] of Compound 1 and 20.0 g of a polyoxyalkylene phosphoric acid ester surfactant are dissolved in 74.7 g of N,N-dimethylacetamide to obtain 100 g of a transparent liquid composition containing 5 wt % of Compound 1.
as §3
Kidney bean planted in a pot having a diameter of 7 cm was put in a breeding case wherein adults of serpentine leaf miner were released and permitted to lay eggs for 2 days. Thereafter, the test plant was taken out and left for 2 days, the liquid composition obtained in accordance with the above Example 4 was diluted with water to prepare a test liquid containing 50 ppm or 100 ppm of the polyoxyalkylene phosphoric acid ester surfactant. Each test liquid was a suspension solution having fine particles uniformly dispersed. The suspension solution was sprayed twice on each of the front and rear sides of the Kidney bean leaf by means of a hand spray. After drying in air, the Kidney bean was left to stand for 5 days in an illuminated constant temperature chamber at 25° C., whereupon the number of pupae on each leaf was counted, and the protective value was calculated in the same manner as in Test Example 1. The test was repeated twice. As the polyoxyalkylene phosphoric acid ester surfactant, ADEKA COL PS-440E (manufactured by ADEKA) and PHOSPHANOL RS-610 (manufactured by Toho Chemical Industry, Co., Ltd.) as polyoxyethylene alkyl ether phosphoric acid esters, and ADEKA COL CS-1361E (manufactured by ADECA) as a polyoxyethylene arylether phosphoric acid ester were used.
as §2

CC(NC(=O)c1cc(Cl)cc(Br)c1NC(=O)c1cc(Br)nn1-c1ncccc1Cl)C1CC1 (stereo not drawn) [Compound 1, 3-Bromo-N-(2-bromo-4-chloro-6-(1-cyclopropylethylcarbamoyl)phenyl)-1-(3-chloropyridin-2-yl)-1H-pyrazole-5-carboxamide]
Protective value (%) ([1]; Compound 1 12.5 ppm + PS-440E 100 ppm, foliar spray on Kidney bean, pupae counted after 5 days): 100% | Protective value (%) ([1]; Compound 1 12.5 ppm + PS-440E 250 ppm, foliar spray on Kidney bean, pupae counted after 5 days): 100% | Protective value (%) ([1]; Compound 1 12.5 ppm + RD-510Y 250 ppm, foliar spray on Kidney bean, pupae counted after 5 days): 70% | Protective value (%) ([1]; Compound 1 12.5 ppm + RS-610 250 ppm, foliar spray on Kidney bean, pupae counted after 5 days): 100% | Protective value (%) ([1]; Compound 1 12.5 ppm + RS-710 250 ppm, foliar spray on Kidney bean, pupae counted after 5 days): 100% | Protective value (%) ([1]; Compound 1 12.5 ppm, no polyoxyethylene alkyl ether phosphoric acid ester (comparative section)): 0% | Protective value (%) ([1]; Compound 1 25 ppm + PS-440E 100 ppm, foliar spray on Kidney bean, pupae counted after 5 days): 100% | Protective value (%) ([1]; Compound 1 25 ppm + PS-440E 250 ppm, foliar spray on Kidney bean, pupae counted after 5 days): 100% | Protective value (%) ([1]; Compound 1 25 ppm + RD-510Y 250 ppm, foliar spray on Kidney bean, pupae counted after 5 days): 100% | Protective value (%) ([1]; Compound 1 25 ppm + RS-610 250 ppm, foliar spray on Kidney bean, pupae counted after 5 days): 100% | Protective value (%) ([1]; Compound 1 25 ppm + RS-710 250 ppm, foliar spray on Kidney bean, pupae counted after 5 days): 100% | Protective value (%) ([1]; Compound 1 25 ppm, no polyoxyethylene alkyl ether phosphoric acid ester (comparative section)): 0% | Protective value (%) (serpentine leaf miner [2]; Compound 1 12.5 ppm + CS-1361E 50 ppm, foliar spray on Kidney bean, pupae counted after 5 days): 100% | Protective value (%) (serpentine leaf miner [2]; Compound 1 12.5 ppm, no polyoxyethylene arylether phosphoric acid ester (comparative section)): 0% | Protective value (%) (serpentine leaf miner [2]; Compound 1 25 ppm + CS-1361E 50 ppm, foliar spray on Kidney bean, pupae counted after 5 days): 100% | Protective value (%) (serpentine leaf miner [2]; Compound 1 25 ppm, no polyoxyethylene arylether phosphoric acid ester (comparative section)): 50% | Protective value (%) (serpentine leaf miner [3]; Compound 1 12.5 ppm + PS-440E 50 ppm (Example 4 composition), foliar spray on Kidney bean, pupae counted after 5 days): 77% | Protective value (%) (serpentine leaf miner [3]; Compound 1 12.5 ppm + RS-610 50 ppm (Example 4 composition), foliar spray on Kidney bean, pupae counted after 5 days): 89% | Protective value (%) (serpentine leaf miner [3]; Compound 1 12.5 ppm, no polyoxyalkylene phosphoric acid ester surfactant (comparative section)): 0% | Protective value (%) (serpentine leaf miner [3]; Compound 1 25 ppm + CS-1361E 100 ppm (Example 4 composition), foliar spray on Kidney bean, pupae counted after 5 days): 100% | Protective value (%) (serpentine leaf miner [3]; Compound 1 25 ppm, no polyoxyalkylene phosphoric acid ester surfactant (comparative section)): 46%
